Data reported in article PMC3250100 (The Journal of General Physiology, 2012).
pIC50: −log10 of the molar value.

Biological target: Cx50 (Mus musculus, UniProt P28236)
Format: biochemical

Chain of Cx50 (P28236 2-440): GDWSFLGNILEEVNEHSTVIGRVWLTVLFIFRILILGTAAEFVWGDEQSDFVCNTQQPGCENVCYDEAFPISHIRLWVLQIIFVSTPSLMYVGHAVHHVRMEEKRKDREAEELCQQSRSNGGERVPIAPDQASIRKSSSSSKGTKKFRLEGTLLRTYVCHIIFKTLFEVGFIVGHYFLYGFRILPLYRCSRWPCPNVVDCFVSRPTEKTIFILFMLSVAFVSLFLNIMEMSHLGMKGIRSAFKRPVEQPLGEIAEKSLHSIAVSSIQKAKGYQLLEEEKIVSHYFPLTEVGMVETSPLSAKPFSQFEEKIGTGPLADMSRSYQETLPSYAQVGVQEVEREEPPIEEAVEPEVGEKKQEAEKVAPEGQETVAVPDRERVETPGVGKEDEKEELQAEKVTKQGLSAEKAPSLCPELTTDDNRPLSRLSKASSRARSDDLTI

**Q.** How did the pIC50 turn out when `C=C[C@H]1C[N+]2(Cc3ccccc3)CC[C@H]1C[C@H]2[C@H](O)c1ccnc2ccc(OC)cc12` [BQ+, N-benzylquininium] was run?
**A.** 3.47
